The values that follow come from PubChem BioAssay AID1996.

For orientation: solubility (kinetic) means the concentration staying in solution when a stock, usually in DMSO, is diluted into the medium.

Structures are written as SMILES. In brackets after ≈: the same amount, converted by molar mass. Some results are limits rather than exact numbers.

For this series the following is noted: buffer; pH 7.4; 200.0 µM.
`O=C1Cc2ccccc2C(c2ccc(Cl)cc2)N1` (stereo not drawn) registered a solubility (kinetic) of 30.4 µg/mL (≈ 118 µM).

Take `CCOC(=O)c1cnc(-c2ccc(C(F)(F)F)cn2)[nH]c1=O`: the kinetic solubility came to 46.8 µg/mL (≈ 149 µM). The figure for `Brc1cccc(CNCc2ccncc2)c1` is more than 41.6 µg/mL. The figure for `CNC(=S)Nc1ccc(OC(F)(F)F)cc1` is 35.4 µg/mL (≈ 141 µM); for `CC(C)(C)c1ccc(OCCCCCCN2CCNCC2)cc1` it is 31.9 µg/mL (≈ 100 µM); for `C=CCOc1ccc(CN(C)C(=O)C2CCCO2)cc1` (stereo not drawn) it is more than 41.3 µg/mL. To `O=C(NCCNc1ccc(Cl)cc1[N+](=O)[O-])c1ccccc1F` belongs 1.5 µg/mL (≈ 4.44 µM); to `Cc1cc(SC2CCOC2=O)nc2ccccc12` (stereo not drawn), 35.5 µg/mL (≈ 137 µM); to `Cn1cccc1C(=O)C(=O)Nc1ccccc1C(F)(F)F`, 5 µg/mL (≈ 16.9 µM). The compound `O=C(CN1CCC(NC(=O)C2CC2)CC1)Nc1cccc(F)c1` came in with a kinetic solubility of more than 47.9 µg/mL. The compound `O=C(COC(=O)c1cccnc1Cl)c1ccc(Cl)s1` gave a solubility (kinetic) of more than 47.4 µg/mL. The figure for `CCNc1cc(N2CCOCC2)nc(SC)n1` is more than 38.2 µg/mL. To `Cc1ccc(CC2CC(=O)N(c3nc4ccccc4s3)C2=O)cc1` (stereo not drawn) belongs 10.3 µg/mL (≈ 30.6 µM). To `COc1cc(C#N)ccc1OCC(=O)NCCC1=CCCCC1` belongs 3.7 µg/mL (≈ 11.8 µM); to `O=C(COC(=O)Cc1c(F)cccc1Cl)Nc1ccc2[nH]c(=O)[nH]c2c1`, more than 56.7 µg/mL.

Regarding `COCC(=O)Nc1nc(-c2ccc(-c3ccccc3)cc2)cs1`, the kinetic solubility is 4.4 µg/mL (≈ 13.6 µM). The figure for `COc1ccc(NC(=O)CSc2ncnc3sc(C)cc23)cc1` is 1.2 µg/mL (≈ 3.47 µM); for `CC12CCC(=O)N1C(C(=O)NCc1ccccc1F)CS2` (stereo not drawn) it is 44.7 µg/mL (≈ 145 µM); for `CCOc1ccc(NC(=O)c2cc(OC)nc3ccccc23)cc1` it is 0.6 µg/mL (≈ 1.86 µM).

Take `Cc1ccc(C2N3CCCN23)cc1` (stereo not drawn): the kinetic solubility was more than 26.1 µg/mL. On to `COc1ccc(C=O)cc1Cn1c(C)cc(C)c(C#N)c1=O`, for which the solubility (kinetic) is 0.6 µg/mL (≈ 2.02 µM). To `O=C(CCC(=O)NC1CCCCC1)Nc1cccnc1` belongs more than 41.3 µg/mL; to `Cc1ccc(OCC(=O)N2CCC(C)CC2)c([N+](=O)[O-])n1`, 43 µg/mL (≈ 147 µM). To `O=C(O)c1c2c(nc3ccccc13)/C(=C/c1cccc([N+](=O)[O-])c1)CCC2` belongs more than 54.1 µg/mL; to `O=S(=O)(c1ccc(Cl)nc1)N1CCOCC1`, more than 39.4 µg/mL; to `N#Cc1ccccc1NC(=O)COC(=O)c1cccs1`, 4 µg/mL (≈ 14 µM). The figure for `CCOC(=O)C1CCCN(C(=O)c2cc(-c3ccco3)nc3ccccc23)C1` (stereo not drawn) is more than 56.8 µg/mL; for `Cc1cc(=O)n(Cc2ccccc2)c2ccccc12` it is more than 37.4 µg/mL. The compound `COC(=O)c1c(C(C)=O)c(C)n(C)c1C` returned a kinetic solubility of more than 31.4 µg/mL.

Take `O=C(NCCc1ccccc1)c1ccc2[nH]c(=O)c(=O)[nH]c2c1`: the solubility (kinetic) was more than 46.4 µg/mL.

Compound `CCc1cccc(NC(=S)N2CCC(c3ccccc3)C2)c1` (stereo not drawn) gave a solubility (kinetic) of 4.6 µg/mL (≈ 14.8 µM). The figure for `C=CCNC(=O)c1ccc(-c2nc3ccccc3nc2-c2ccccc2)cc1` is 11.7 µg/mL (≈ 32 µM). As to `CC(C)[N+]1=C2C=CC=CC=C2SC12C([N+](=O)[O-])=CC(=[N+]([O-])[O-])C=C2[N+](=O)[O-]` (stereo not drawn), the solubility (kinetic) was 1.3 µg/mL (≈ 3.33 µM).

For `Cc1nc(SCC(=O)N2CCNC2=O)c2ccccc2n1`, the kinetic solubility was more than 45.4 µg/mL. The figure for `O=C(Nc1cc(S(=O)(=O)Nc2ccc(Cl)cc2)ccc1O)c1ccc(F)cc1F` is 4.2 µg/mL (≈ 9.57 µM); for `CC(C)CC(=O)NC(=S)Nc1ccc(N2CCCC2)c(Cl)c1` it is less than 0.2 µg/mL. As to `Cc1noc(C)c1COC(=O)[C@@H](NC(=O)c1ccccc1)C(C)C`, the kinetic solubility is more than 49.6 µg/mL. To `Cc1ccc2nc(-c3ccc(N)cc3)sc2c1` belongs 1.1 µg/mL (≈ 4.58 µM); to `CC(=O)c1cccc(NC(=O)c2cc(-c3cccs3)on2)c1`, less than 0.3 µg/mL; to `CC(C)(CO)NCc1c(OCc2ccc(Cl)cc2)ccc2ccccc12.Cl`, 57.1 µg/mL. The compound `COc1cc(C(=O)NC(=S)N2CCN(C)CC2)cc(OC)c1OC` registered a kinetic solubility of more than 53 µg/mL. In turn, `CC(Oc1ccc([N+](=O)[O-])cc1)C(=O)NCC1CCCO1` (stereo not drawn) had a solubility (kinetic) of more than 44.1 µg/mL.

In turn, `O=C(O)/C=C/c1ccc(-n2ccnc2)cc1` displayed a solubility (kinetic) of more than 32.1 µg/mL. To `O=C(O)c1ccc(-c2nnc(-c3ccccc3)o2)cc1` belongs more than 39.9 µg/mL. The figure for `COc1cc(C(=O)O/N=C(\N)c2ccccn2)cc(OC)c1OC` is more than 49.7 µg/mL; for `O=C(C1Cc2ccccc2CN1S(=O)(=O)c1ccccc1[N+](=O)[O-])N1CCOCC1` (stereo not drawn) it is 63.7 µg/mL (≈ 148 µM); for `COc1ccc(OC)c(S(=O)(=O)NCCCN2CCOCC2)c1.Cl` it is more than 57.1 µg/mL. The figure for `Nc1cc(C(=O)O)ccc1Sc1ccccc1C(=O)O` is more than 43.4 µg/mL; for `Cn1c(=O)n(C)c2cc(S(=O)(=O)N3CCN(c4ccccc4)CC3)ccc21` it is 0.3 µg/mL (≈ 0.776 µM).

As to `C=CCNC(=O)c1ccccc1NC(=O)C1CC(=O)N(C(C)C)C1` (stereo not drawn), the solubility (kinetic) was more than 49.4 µg/mL. The figure for `CC(=O)Cn1ncc(N2CCOCC2)c(Cl)c1=O` is more than 40.8 µg/mL; for `OCCC1CN(Cc2ccsc2)CCN1C1CCCC1` (stereo not drawn) it is more than 44.2 µg/mL; for `CCN(C(=O)Cc1c(C(=O)O)n(C)c2ccccc12)c1cccc(C)c1` it is more than 52.6 µg/mL.

Take `Cc1ccc(C2(C)NC(=O)N(CC(=O)N3CCc4ccccc43)C2=O)cc1` (stereo not drawn): the kinetic solubility worked out at 3.6 µg/mL (≈ 9.91 µM). To `CC1CCN(C(=O)CSc2nnc(N)s2)CC1` belongs more than 40.9 µg/mL. The figure for `O=C(/C=C/c1ccc([N+](=O)[O-])cc1)Nc1cccc(S(=O)(=O)NC2=NCCCCC2)c1` is 11.5 µg/mL (≈ 26 µM); for `Cc1cc(C(=O)Nc2ccc(Cl)cc2)on1` it is 3.8 µg/mL (≈ 16.1 µM); for `CC(=O)c1ccc(NC(=S)Nc2cccc(Cl)c2C)cc1` it is 40.7 µg/mL (≈ 128 µM).

`CC(=O)Nc1ccc(S(=O)(=O)NCC(=O)OCC(=O)N2CC(C)OC(C)C2)cc1` (stereo not drawn): the solubility (kinetic) is more than 64.1 µg/mL. To `CCCCc1nc(C(N)=O)c2[nH]c(=O)n(-c3ccc(OCC)cc3)c2n1` belongs 5.6 µg/mL (≈ 15.8 µM). The figure for `COc1ccc(NC(=O)c2cc(C)no2)cc1Cl` is 7.5 µg/mL (≈ 28.1 µM); for `CCn1c(C(=O)NC2CCC(C)CC2)cc2sccc21` (stereo not drawn) it is 0.7 µg/mL (≈ 2.41 µM); for `Cc1cccc(N(CC(=O)N2CCCC2)S(C)(=O)=O)c1` it is 43.5 µg/mL (≈ 147 µM). `O=C(O)CC(c1ccc(F)cc1F)N1Cc2ccccc2C1=O` (stereo not drawn) had a solubility (kinetic) of more than 47.6 µg/mL. The figure for `COc1ccc(/C=N/NC(=O)c2cc[n+]([O-])cc2)cc1OC` is more than 45.2 µg/mL; for `C=CCn1c(C(C)C)nc2ccccc21.Cl` it is more than 35.5 µg/mL. To `CC(=O)N/C(=C\c1ccc2c(c1)OCO2)C(=O)NC(C(=O)O)c1ccccc1` (stereo not drawn) belongs more than 57.4 µg/mL; to `Cc1cc(C)cc(NC(=O)c2cc(C)n(Cc3cccs3)c2C)c1`, 2.3 µg/mL (≈ 6.8 µM); to `CCn1c(=O)cc(C(F)(F)F)[nH]c1=S`, more than 33.6 µg/mL. `O=c1cc(CO)[nH]cc1OCc1ccccc1` came in with a solubility (kinetic) of 34.4 µg/mL (≈ 149 µM). To `Cc1cc(Cl)cc(Cl)c1OCCN1CCCC1` belongs 30.2 µg/mL (≈ 110 µM). In the case of `Cc1ccccc1N=C1NC(=O)/C(=C/c2cccnc2)S1`, the kinetic solubility came to 38.1 µg/mL (≈ 129 µM). Turning to `O=C(c1ccccc1SCc1ccccc1)N1CCOCC1`, the solubility (kinetic) is 45.9 µg/mL (≈ 146 µM). The figure for `O=C(Cc1ccccc1)N1CCC(c2ccccc2)C1` (stereo not drawn) is 38.6 µg/mL (≈ 145 µM); for `COc1ccc(-c2nnc(SCC(=O)N(C)C3CCS(=O)(=O)C3)n2C(C)C)cc1` (stereo not drawn) it is more than 65.8 µg/mL; for `[O-][N+]1=c2ccc(Nc3ccccc3)cc2=NC12CCCCC2` it is less than 0.2 µg/mL. Compound `CCc1cc(C(=O)OC)c(NC(=O)c2ccoc2C)s1` displayed a kinetic solubility of less than 0.6 µg/mL.

For the compound `Cc1csc2c(N(C)CCO)ncnc12`, the kinetic solubility was more than 33.5 µg/mL. To `O=C(CNC(=O)c1ccccc1)OCC(=O)c1ccccc1Cl` belongs more than 49.8 µg/mL; to `O=C(Oc1c(-c2ccccc2)c(=O)n2c3c(cccc13)CC2)c1ccc(Cl)cc1`, less than 0.9 µg/mL.

`C=CCNC(=S)N1CCc2c([nH]c3ccccc23)C1C` (stereo not drawn) had a solubility (kinetic) of 27.7 µg/mL (≈ 97.1 µM). The figure for `CN(C(=S)NC(=O)c1ccccc1)C1CCCCC1` is more than 41.5 µg/mL; for `Cc1ccc(C(=O)COC(=O)c2cn3ccccc3n2)cc1` it is 4.1 µg/mL (≈ 13.9 µM); for `O=C(Nc1ccc(S(=O)(=O)NC2=NCCCCC2)cc1)c1cccs1` it is more than 56.6 µg/mL. `COc1ccc(C2Nc3ccccc3C(=O)N2NC(C)=O)cc1OC` (stereo not drawn) gave a kinetic solubility of more than 51.2 µg/mL. The figure for `Cn1c(=O)c([N+](=O)[O-])c(NCC2CCCO2)c2ccccc21` (stereo not drawn) is more than 45.5 µg/mL; for `COc1ccc(C)cc1Nc1nc(-c2ccccc2O)nc2ccccc12` it is less than 0.3 µg/mL; for `C/C(=N/OC(=O)c1ccc(Br)cc1)c1ccc(C)cc1` it is less than 0.7 µg/mL. On to `COc1ccc(C=NNC(=O)c2cc(C)oc2C)cc1O`, for which the solubility (kinetic) is more than 43.2 µg/mL. In turn, `CC(CCn1cccn1)NC(=O)CCc1nnc(C2CCCCC2)o1` (stereo not drawn) registered a solubility (kinetic) of more than 51.8 µg/mL. The figure for `CSc1cccc(NC(=O)CCCNC(=O)c2ccc(Cl)cc2)c1` is 4.5 µg/mL (≈ 12.4 µM); for `CCOCCCNC(=O)/C(C#N)=C/c1ccc(C)o1` it is 35.4 µg/mL (≈ 135 µM); for `C=C(C)n1c(=O)n(Cc2ccc(C)cc2)c2ccccc21` it is 16.3 µg/mL (≈ 58.6 µM).

`COCCn1c(=S)[nH]c2sc3c(c2c1=O)CCCC3` yielded a kinetic solubility of more than 44.5 µg/mL. To `COC(=O)c1scc(C)c1NS(=O)(=O)c1ccc(NC(C)=O)cc1` belongs more than 55.3 µg/mL.

Consider `Cn1cccc1C(=O)OCC(=O)Nc1ccc2c(c1)OCO2`, for which the kinetic solubility is 17.4 µg/mL (≈ 57.6 µM). `O=C1N(Cc2ccccc2)c2ccc(Cl)cc2C12OCCO2` had a kinetic solubility of 9 µg/mL (≈ 28.5 µM). The figure for `CC1CCN(S(=O)(=O)c2ccc3c(c2)n(C)c(=O)n3C)CC1` is more than 48.5 µg/mL; for `CCOC(=O)c1c(Cc2ccccc2)c[nH]c1C` it is 30.9 µg/mL (≈ 127 µM); for `COc1ccc(NC(=S)NCCN2CCC(C)CC2)cc1` it is more than 46.1 µg/mL. `Cn1c(N2CCOCC2)cc(=O)n(C)c1=O` had a kinetic solubility of 29.3 µg/mL (≈ 130 µM).

Regarding `CC(=O)C(CC(=O)N1CCCC1)C(=O)Nc1ccc(Cl)cc1` (stereo not drawn), the solubility (kinetic) was more than 48.4 µg/mL.

For `O=C1CC(N2CCSCC2)C(=O)N1c1cccc(Cl)c1` (stereo not drawn), the kinetic solubility was more than 46.6 µg/mL.
